Measured values published in EPA's ToxRefDB 2.

What was measured:
rat [1] = conditions: Multigenerational reproductive toxicity study, sprague dawley, Oral, Feed, dose end: 2 generation
dog [2] = conditions: Chronic toxicity, beagle, Oral, Feed, dose end: 52 week
rat [3] = conditions: Prenatal developmental toxicity study, other, Oral, Gavage/Intubation, dose end: 16 GD
rat [4] = conditions: Subchronic oral toxicity in rodents, sprague dawley, Feed, dose end: 90 day
mouse [5] = conditions: Carcinogenicity; cd1; Oral; Feed; dose end: 18 month; group: systemic; systemic / in life observation / body weight / body weight + systemic / in life observation / mortality / mortality
rat [6] = conditions: Combined chronic toxicity/carcinogenicity; sprague dawley; Oral; Feed; dose end: 24 month; group: systemic; systemic / in life observation / body weight / body weight gain
dog [7] = conditions: Subchronic oral toxicity in nonrodent, beagle, Feed, dose end: 26 week, group: systemic
rat [8] = conditions: Subchronic oral toxicity in rodents, other, Feed, dose end: 13 week, group: systemic
mouse [9] = conditions: Carcinogenicity, cd1, Oral, Feed, dose end: 24 month, group: systemic
rat [10] = conditions: Prenatal developmental toxicity study, sprague dawley, Oral, Gavage/Intubation, dose end: 19 GD
dog [11] = conditions: Subchronic oral toxicity in nonrodent, beagle, Capsule, dose end: 26 week, group: systemic
mouse [12] = conditions: Combined chronic toxicity/carcinogenicity, cd1, Oral, Feed, dose end: 104 week, group: systemic
rat [13] = conditions: Subchronic oral toxicity in rodents, wistar, [Not Specified], dose end: 13 week, group: systemic
rat [14] = conditions: Multigenerational reproductive toxicity study, wistar, Oral, Feed, dose end: 3 generation
rat [15] = conditions: Combined chronic toxicity/carcinogenicity; sprague dawley; Oral; Feed; dose end: 2 year; group: systemic; systemic / in life observation / body weight / body weight + systemic / in life observation / food consumption / food consumption
rat [16] = conditions: Prenatal developmental toxicity study, sprague dawley, Inhalation, Whole-Body, dose end: 20 GD
rat [17] = conditions: Subchronic oral toxicity in rodents; wistar; Inhalation; Whole-Body; dose end: 90 day; group: systemic; systemic / clinical chemistry / alkaline phosphatase (alp/alk) / alkaline phosphatase (alp/alk) + systemic / clinical chemistry / lactic …
[18] = group: offspring, systemic / in life observation / body weight / offspring (pup) weight
[19] = group: offspring, systemic / in life observation / body weight / offspring (pup) weight + developmental / offspring survival late / [other] / [other] + …
[20] = group: parental, systemic / in life observation / body weight / body weight + systemic / in life observation / body weight / body weight gain + systemic / in…
[21] = group: cholinesterase, cholinesterase / cholinesterase / cholinesterase / brain cholinesterase (che)
[22] = group: cholinesterase, cholinesterase / cholinesterase / cholinesterase / brain cholinesterase (che) + cholinesterase / cholinesterase / cholinesterase / plasma …
[23] = group: systemic, systemic / in life observation / body weight / body weight + systemic / in life observation / body weight / body weight gain + systemic / in…
[24] = group: systemic, systemic / in life observation / body weight / body weight gain
[25] = group: developmental, systemic / in life observation / body weight / fetal weight
[26] = group: maternal, systemic / in life observation / body weight / body weight gain + systemic / in life observation / clinical signs / tremors + systemic / in …
[27] = group: cholinesterase, cholinesterase / cholinesterase / cholinesterase / brain cholinesterase (che) + cholinesterase / cholinesterase / cholinesterase / …
[28] = group: systemic, systemic / in life observation / body weight / body weight + systemic / in life observation / clinical signs / abnormal gait + systemic / in…
[29] = systemic / in life observation / body weight / body weight + systemic / in life observation / body weight / body weight gain
[30] = systemic / in life observation / body weight / body weight + systemic / in life observation / body weight / body weight gain + systemic / …
[31] = systemic / organ weight / liver / absolute + systemic / organ weight / liver / relative to body weight
[32] = group: developmental, developmental / developmental malformation / bone / [other] + developmental / developmental malformation / bone / unossified
[33] = group: maternal, systemic / in life observation / body weight / body weight gain + systemic / in life observation / clinical signs / nasal discharge + …
[34] = systemic / in life observation / clinical signs / defecation (diarrhea)
[35] = systemic / in life observation / clinical signs / defecation (diarrhea) + systemic / in life observation / clinical signs / headflicking + …
[36] = systemic / clinical chemistry / aminopyrine-n-demethylase / aminopyrine-n-demethylase + systemic / in life observation / body weight / body …
[37] = group: offspring, systemic / in life observation / body weight / offspring (pup) weight + systemic / in life observation / body weight / offspring (pup) …
[38] = group: parental, systemic / in life observation / body weight / body weight + systemic / in life observation / body weight / body weight gain
[39] = group: reproductive, reproductive / offspring survival early / litter size / litter size + reproductive / offspring survival early / birth index / live birth …
[40] = group: maternal, systemic / in life observation / body weight / body weight gain + systemic / in life observation / food consumption / food consumption

CNC(=O)ON=C(SC)C(=O)N(C)C [Oxamyl]
LEL (rat [1]; [18]): 5.2 mg/kg/day | LOAEL (rat [1]; [18]): 5.2 mg/kg/day | NEL (rat [1]; [19]): 1.7 mg/kg/day | NOAEL (rat [1]; [19]): 1.7 mg/kg/day | LEL (rat [1]; [20]): 5.2 mg/kg/day | LOAEL (rat [1]; [20]): 5.2 mg/kg/day | NEL (rat [1]; [20]): 1.7 mg/kg/day | NOAEL (rat [1]; [20]): 1.7 mg/kg/day | LOAEL (dog [2]; [21]): 1.56 mg/kg/day | NOAEL (dog [2]; [21]): < 1.56 mg/kg/day | LEL (dog [2]; [22]): 1.56 mg/kg/day | NEL (dog [2]; [22]): < 1.56 mg/kg/day | LOAEL (dog [2]; [23]): 4.5 mg/kg/day | NOAEL (dog [2]; [23]): 1.46 mg/kg/day | LEL (dog [2]; [24]): 1.56 mg/kg/day | NEL (dog [2]; [24]): < 1.56 mg/kg/day | LEL (rat [3]; [25]): 0.5 mg/kg/day | LOAEL (rat [3]; [25]): 0.5 mg/kg/day | NEL (rat [3]; [25]): 0.2 mg/kg/day | NOAEL (rat [3]; [25]): 0.2 mg/kg/day | LEL (rat [3]; [26]): 0.8 mg/kg/day | LOAEL (rat [3]; [26]): 0.8 mg/kg/day | NEL (rat [3]; [26]): 0.5 mg/kg/day | NOAEL (rat [3]; [26]): 0.5 mg/kg/day | LEL (rat [4]; [27]): 14.9 mg/kg/day | LOAEL (rat [4]; [27]): 14.9 mg/kg/day | NEL (rat [4]; [27]): 2.1 mg/kg/day | NOAEL (rat [4]; [27]): 2.1 mg/kg/day | LEL (rat [4]; [28]): 14.9 mg/kg/day | LOAEL (rat [4]; [28]): 14.9 mg/kg/day | NEL (rat [4]; [28]): 2.1 mg/kg/day | NOAEL (rat [4]; [28]): 2.1 mg/kg/day | LEL (mouse [5]): 7.5 mg/kg/day | LOAEL (mouse [5]): 7.5 mg/kg/day | NEL (mouse [5]): 3.75 mg/kg/day | NOAEL (mouse [5]): 3.75 mg/kg/day

Nc1nc(N)nc(NC2CC2)n1 [Cyromazine]
LEL (rat [6]): 15 mg/kg/day | LOAEL (rat [6]): 15 mg/kg/day | NEL (rat [6]): 1.5 mg/kg/day | NOAEL (rat [6]): 1.5 mg/kg/day | LOAEL (dog [7]; systemic / in life observation / body weight / body weight + systemic / hematology / hematocrit (hct) / hematocrit (hct) + systemic / …): 75 mg/kg/day | LEL (dog [7]; [29]): 0.75 mg/kg/day | NEL (dog [7]; [29]): < 0.75 mg/kg/day | NOAEL (dog [7]; [30]): 7.5 mg/kg/day | LEL (rat [8]; [31]): 3 mg/kg/day | LOAEL (rat [8]; [31]): 30 mg/kg/day | NEL (rat [8]; [31]): < 3 mg/kg/day | NOAEL (rat [8]; systemic / organ weight / liver / absolute + systemic / organ weight / liver / relative to body weight + systemic / clinical chemistry / …): 3 mg/kg/day | LOAEL (mouse [9]; systemic / in life observation / body weight / body weight): 150 mg/kg/day | LEL (mouse [9]; [29]): 150 mg/kg/day | NEL (mouse [9]; [30]): 7.5 mg/kg/day | NOAEL (mouse [9]; [30]): 7.5 mg/kg/day | LEL (rat [10]; [32]): 600 mg/kg/day | LOAEL (rat [10]; [32]): 600 mg/kg/day | NEL (rat [10]; [32]): 300 mg/kg/day | NOAEL (rat [10]; [32]): 300 mg/kg/day | LOAEL (rat [10]; group: maternal, systemic / in life observation / body weight / body weight gain + systemic / in life observation / clinical signs / nasal discharge): 300 mg/kg/day | LEL (rat [10]; [33]): 300 mg/kg/day | NEL (rat [10]; [33]): 100 mg/kg/day | NOAEL (rat [10]; [33]): 100 mg/kg/day

CC1(C)C(C=C(Cl)C(F)(F)F)C1C(=O)OC(C#N)c1cccc(Oc2ccccc2)c1 (stereo not given) [Cyhalothrin]
LEL (dog [11]; [34]): 2.5 mg/kg/day | LOAEL (dog [11]; [34]): 2.5 mg/kg/day | NEL (dog [11]; [35]): 1 mg/kg/day | NOAEL (dog [11]; [35]): 1 mg/kg/day | NEL (mouse [12]; systemic / in life observation / body weight / body weight + systemic / in life observation / body weight / body weight gain + systemic / in…): 3 mg/kg/day | NOAEL (mouse [12]; systemic / in life observation / clinical signs / hunched posture + systemic / in life observation / clinical signs / piloerection): 15 mg/kg/day | LOAEL (mouse [12]; systemic / in life observation / clinical signs / hunched posture + systemic / in life observation / clinical signs / piloerection + …): 75 mg/kg/day | LEL (mouse [12]; systemic / in life observation / clinical signs / piloerection): 15 mg/kg/day | LEL (rat [13]; systemic / clinical chemistry / aminopyrine-n-demethylase / aminopyrine-n-demethylase): 2.5 mg/kg/day | NEL (rat [13]; [36]): 0.5 mg/kg/day | NOAEL (rat [13]; [36]): 2.5 mg/kg/day | LOAEL (rat [13]; systemic / in life observation / body weight / body weight gain): 12.5 mg/kg/day | LEL (rat [14]; [37]): 1.5 mg/kg/day | LOAEL (rat [14]; [37]): 5 mg/kg/day | NEL (rat [14]; [37]): 0.5 mg/kg/day | NOAEL (rat [14]; [37]): 1.5 mg/kg/day | LEL (rat [14]; [38]): 1.5 mg/kg/day | LOAEL (rat [14]; [38]): 5 mg/kg/day | NEL (rat [14]; [38]): 0.5 mg/kg/day | NOAEL (rat [14]; [38]): 1.5 mg/kg/day | NEL (rat [14]; group: reproductive, reproductive / offspring survival early / litter size / litter size): 1.5 mg/kg/day | LEL (rat [14]; [39]): 5 mg/kg/day | LOAEL (rat [14]; [39]): > 5 mg/kg/day | NOAEL (rat [14]; [39]): ≥ 5 mg/kg/day | LEL (rat [15]): 12.5 mg/kg/day | LOAEL (rat [15]): 12.5 mg/kg/day | NEL (rat [15]): 2.5 mg/kg/day | NOAEL (rat [15]): 2.5 mg/kg/day

Cc1ccc(C)c(C)c1 [1,2,4-Trimethylbenzene]
LEL (rat [16]; [25]): 600 ppm | LOAEL (rat [16]; [25]): > 600 ppm | NEL (rat [16]; [25]): 300 ppm | NOAEL (rat [16]; [25]): ≥ 600 ppm | LEL (rat [16]; [40]): 600 ppm | LOAEL (rat [16]; [40]): > 600 ppm | NEL (rat [16]; [40]): 300 ppm | NOAEL (rat [16]; [40]): ≥ 600 ppm | LEL (rat [17]): 25 ppm | LOAEL (rat [17]): > 250 ppm | NEL (rat [17]): < 25 ppm | NOAEL (rat [17]): ≥ 250 ppm
